Tested on: apyrase
Assay: Screen for apyrase inhibitors (Method 1, in vitro phosphate-release absorbance assay)
Type: biochemical
Conditions: inhibitor conc at 1 mM stock, 1 hr room temperature, absorbance 630 nm; rounded average of two assay results
Protocol: Apyrase inhibitors useful as enhancers of pesticidal activity are assessed using an in vitro assay. The method of Windsor, Bio Techniques 33:1024-1030 (November 2002) was used as follows Screen for Apyrase Inhibitors- 96 well plates were used for the assay: (Greiner bio-one: REF-655901-96 well, PS, F-bottom, Clear, Non-binding) Buffers: • Reaction Buffer: 60 mM Hepes; 3 mM MgCl2, 3 mM CaCl2 and 3 mM ATP (pH 6.5) • Development Buffer A: 2% aqueous ammonium molybdate • Development Buffer B: 11% ascorbic acid in 37.5% TCA in water • Stop buffer C: 2% trisodium citrate in 2% acetic acid solution in water • Add 100 μl of reaction buffer to each well. • Add 10 μl of DMSO (control) or inhibitor/compound or compounds such as […] or orthovanadate to each well. […] A blank cell indicates either <10% observed inhibition or a large difference between repetitions. In certain examples, the lack of observed inhibition is due to a lack of solubility of the compound under assay conditions, rather than a lack of apyrase inhibitory activity.

Structure (SMILES)	% Inhibition of Apyrase [%]
O=C(Nc1cccc([N+](=O)[O-])c1)c1cccc(S(=O)(=O)NCc2ccccc2)c1 [I-50, 3-(N-benzylsulfamoyl)-N-(3-nitrophenyl)benzamide]	10
O=C(Nc1cccc([N+](=O)[O-])c1)c1cc(S(=O)(=O)Nc2ccc(F)cc2)ccc1Cl [I-52, 2-chloro-5-(N-(4-fluorophenyl)sulfamoyl)-N-(3-nitrophenyl)benzamide]	10
O=C(Nc1ccccc1Cl)c1cccc(S(=O)(=O)Nc2ccc(Cl)cc2)c1 [I-177, N-(2-chlorophenyl)-3-(N-(4-chlorophenyl)sulfamoyl)benzamide]	69
Cc1cc(C)cc(NC(=O)c2cccc(S(=O)(=O)Nc3ccc4c(c3)OCO4)c2)c1 [I-179, 3-(N-(benzo[d][1,3]dioxol-5-yl)sulfamoyl)-N-(3,5-dimethylphenyl)benzamide]	72
Cc1cc(C(=O)Nc2cccc(S(=O)(=O)Nc3ccc(Br)cc3)c2)ccc1[N+](=O)[O-] [I-182, N-(3-(N-(4-bromophenyl)sulfamoyl)phenyl)-3-methyl-4-nitrobenzamide]	68
N#Cc1cccc(NC(=O)c2ccc(S(=O)(=O)Nc3ccc(Cl)cc3)cc2)c1 [I-185, 4-(N-(4-chlorophenyl)sulfamoyl)-N-(3-cyanophenyl)benzamide]	77
O=C(c1cccc(S(=O)(=O)Nc2ccc3c(c2)OCO3)c1)N1CCc2ccccc21 [I-188, N-(benzo[d][1,3]dioxol-5-yl)-3-(indoline-1-carbonyl)benzenesulfonamide]	73
O=C(Nc1ccc(C(F)(F)F)cc1)c1cccc(S(=O)(=O)Nc2ccc3c(c2)OCO3)c1 [I-192, 3-(N-(benzo[d][1,3]dioxol-5-yl)sulfamoyl)-N-(4-(trifluoromethyl)phenyl)benzamide]	72
Cc1ccc(C(=O)Nc2cccc(S(=O)(=O)Nc3ccc(Br)cc3)c2)cc1 [I-194, N-(3-(N-(4-bromophenyl)sulfamoyl)phenyl)-4-methylbenzamide]	74
O=C(CNC(=O)c1ccc(Br)cc1)Nc1cccc(S(=O)(=O)Nc2ccc(Br)cc2)c1 [I-195, 4-bromo-N-(2-((3-(N-(4-bromophenyl)sulfamoyl)phenyl)amino)-2-oxoethyl)benzamide]	70
O=C(Nc1cccc(Cl)c1)c1cccc(S(=O)(=O)Nc2ccc3c(c2)OCO3)c1 [I-197, 3-(N-(benzo[d][1,3]dioxol-5-yl)sulfamoyl)-N-(3-chlorophenyl)benzamide]	70
O=C(Nc1cccc(S(=O)(=O)Nc2ccc(Br)cc2)c1)c1ccc2ncsc2c1 [I-199, N-(3-(N-(4-bromophenyl)sulfamoyl)phenyl)benzo[d]thiazole-6-carboxamide]	66
O=C(Nc1ccc(OC(F)(F)F)cc1)c1cccc(S(=O)(=O)Nc2ccc3c(c2)OCO3)c1 [I-200, 3-(N-(benzo[d][1,3]dioxol-5-yl)sulfamoyl)-N-(4-(trifluoromethoxy)phenyl)benzamide]	78
N#Cc1cccc(NC(=O)c2ccc(S(=O)(=O)Nc3ccccc3Cl)cc2)c1 [I-202, 4-(N-(2-chlorophenyl)sulfamoyl)-N-(3-cyanophenyl)benzamide]	78
Cc1ccc(NS(=O)(=O)c2ccc(C(=O)Nc3cccc(S(=O)(=O)N4CCCC4)c3)cc2)cc1 [I-204, N-(3-(pyrrolidin-1-ylsulfonyl)phenyl)-4-(N-(p-tolyl)sulfamoyl)benzamide]	69

The next lines start with the values.

% Inhibition of Apyrase [%]	Structure (SMILES)
12	O=C(NCCCN1CCCC1=O)c1cccc(S(=O)(=O)Nc2ccc(Br)cc2)c1 [I-46, 3-(N-(4-bromophenyl)sulfamoyl)-N-(3-(2-oxopyrrolidin-1-yl)propyl)benzamide]
12	CC(=O)Nc1ccc(NC(=O)c2cccc(S(=O)(=O)Nc3ccc(Br)cc3)c2)cc1 [I-47, N-(4-acetamidophenyl)-3-(N-(4-bromophenyl)sulfamoyl)benzamide]
11	O=C(NCc1ccco1)c1cccc(S(=O)(=O)Nc2ccc(Br)cc2)c1 [I-48, 3-(N-(4-bromophenyl)sulfamoyl)-N-(furan-2-ylmethyl)benzamide]
11	Cc1ccc([N+](=O)[O-])cc1NC(=O)c1cc(S(=O)(=O)Nc2ccc(Br)cc2)c(Cl)cc1Cl [I-49, 5-(N-(4-bromophenyl)sulfamoyl)-2,4-dichloro-N-(2-methyl-5-nitrophenyl)benzamide]
10	O=C(Nc1cccc([N+](=O)[O-])c1)c1cccc(S(=O)(=O)Nc2cccc(F)c2)c1 [I-51, 3-(N-(3-fluorophenyl)sulfamoyl)-N-(3-nitrophenyl)benzamide]
75	O=C(Nc1cccc(S(=O)(=O)N2CCCC2)c1)c1ccccc1NS(=O)(=O)c1cccc(C(F)(F)F)c1 [I-180, N-(3-(pyrrolidin-1-ylsulfonyl)phenyl)-2-((3-(trifluoromethyl)phenyl)sulfonamido) benzamide]
77	O=C(Nc1ccc(OC(F)F)c(Cl)c1)c1cccc(S(=O)(=O)Nc2ccc3c(c2)OCO3)c1 [I-181, 3-(N-(benzo[d][1,3]dioxol-5-yl)sulfamoyl)-N-(3-chloro-4-(difluoromethoxy)phenyl)benzamide]
67	Cc1cc(F)ccc1NC(=O)c1ccc(S(=O)(=O)Nc2cccc(C(F)(F)F)c2)cc1 [I-183, N-(4-fluoro-2-methylphenyl)-4-(N-(3-(trifluoromethyl)phenyl)sulfamoyl)benzamide]
81	Cc1ccc(C(=O)Nc2cccc(NS(=O)(=O)c3ccccc3)c2)cc1C [I-184, 3,4-dimethyl-N-(3-(phenylsulfonamido)phenyl)benzamide]
67	N#Cc1ccc(NC(=O)c2cccc(S(=O)(=O)Nc3ccc4c(c3)OCO4)c2)cc1 [I-187, 3-(N-(benzo[d][1,3]dioxol-5-yl)sulfamoyl)-N-(4-cyanophenyl)benzamide]
70	O=C(Nc1ccc(Br)cc1)c1cccc(S(=O)(=O)N2CCc3ccccc32)c1 [I-189, N-(4-bromophenyl)-3-(indolin-1-ylsulfonyl)benzamide]
73	O=C(Nc1ccc(F)c(Cl)c1)c1cccc(S(=O)(=O)Nc2ccc3c(c2)OCO3)c1 [I-190, 3-(N-(benzo[d][1,3]dioxol-5-yl)sulfamoyl)-N-(3-chloro-4-fluorophenyl)benzamide]
74	O=C(Nc1ccc(F)cc1)c1ccc(S(=O)(=O)Nc2cccc(C(F)(F)F)c2)cc1 [I-193, N-(4-fluorophenyl)-4-(N-(3-(trifluoromethyl)phenyl)sulfamoyl)benzamide]
74	N#Cc1cccc(S(=O)(=O)Nc2cccc(C(=O)Nc3cccc(C(F)(F)F)c3)c2)c1 [I-196, 3-((3-cyanophenyl)sulfonamido)-N-(3-(trifluoromethyl)phenyl)benzamide]
72	O=C(Nc1ccc(F)c([N+](=O)[O-])c1)c1ccc(S(=O)(=O)Nc2ccc(Cl)cc2)cc1 [I-203, 4-(N-(4-chlorophenyl)sulfamoyl)-N-(4-fluoro-3-nitrophenyl)benzamide]
74	O=C(CNC(=O)c1ccccc1F)Nc1cccc(S(=O)(=O)Nc2ccc(Br)cc2)c1 [I-205, N-(2-((3-(N-(4-bromophenyl)sulfamoyl)phenyl)amino)-2-oxoethyl)-2-fluorobenzamide]

Reference: patent publication US12685312B2, “Sulfonamide apyrase inhibitors” (Texas Crop Science, Inc., priority 2022, dated 2026)
